Experimental data taken from the NIST ThermoML archive (doi:10.1016/j.jct.2006.05.008).
± gives the expanded uncertainty stated by the source.

Experiment: molar heat capacity at constant pressure; wn = mass fraction of the nth substance listed
Settings: Small (less than 1 g) adiabatic calorimetry

CCCCn1cc[n+](C)c1.[Br-] [1-butyl-3-methylimidazolium bromide] + O
Settings	molar heat capacity at constant pressure [J/K/mol]
152.96 K, 101.3 kPa, Glass, w2 = 0.00482	151.04 ± 0.8
155.53 K, 101.3 kPa, Glass, w2 = 0.00482	152.59 ± 0.81
158.09 K, 101.3 kPa, Glass, w2 = 0.00482	154.17 ± 0.82
160.66 K, 101.3 kPa, Glass, w2 = 0.00482	155.77 ± 0.82
163.24 K, 101.3 kPa, Glass, w2 = 0.00482	157.38 ± 0.83
165.81 K, 101.3 kPa, Glass, w2 = 0.00482	158.96 ± 0.84
168.39 K, 101.3 kPa, Glass, w2 = 0.00482	160.57 ± 0.84
170.97 K, 101.3 kPa, Glass, w2 = 0.00482	162.11 ± 0.85
173.55 K, 101.3 kPa, Glass, w2 = 0.00482	163.78 ± 0.85
176.13 K, 101.3 kPa, Glass, w2 = 0.00482	165.35 ± 0.86
178.71 K, 101.3 kPa, Glass, w2 = 0.00482	167.03 ± 0.87
181.3 K, 101.3 kPa, Glass, w2 = 0.00482	168.7 ± 0.88
183.89 K, 101.3 kPa, Glass, w2 = 0.00482	170.41 ± 0.88
186.48 K, 101.3 kPa, Glass, w2 = 0.00482	172.04 ± 0.89
189.06 K, 101.3 kPa, Glass, w2 = 0.00482	173.78 ± 0.9
191.65 K, 101.3 kPa, Glass, w2 = 0.00482	175.6 ± 0.9
194.25 K, 101.3 kPa, Glass, w2 = 0.00482	177.44 ± 0.91
196.84 K, 101.3 kPa, Glass, w2 = 0.00482	179.31 ± 0.92
199.44 K, 101.3 kPa, Glass, w2 = 0.00482	181.34 ± 0.93
201.78 K, 101.3 kPa, Glass, w2 = 0.00482	183.39 ± 0.93
203.87 K, 101.3 kPa, Glass, w2 = 0.00482	185.23 ± 0.94
205.95 K, 101.3 kPa, Glass, w2 = 0.00482	187.63 ± 0.95
208.05 K, 101.3 kPa, Glass, w2 = 0.00482	190.57 ± 0.96
209.63 K, 101 kPa, Liquid, w2 = 0.0495	190.63 ± 0.96
210.13 K, 101.3 kPa, Glass, w2 = 0.00482	194.11 ± 0.98
211.86 K, 101 kPa, Liquid, w2 = 0.0495	190.98 ± 0.96
212.18 K, 101.3 kPa, Glass, w2 = 0.00482	199.24 ± 1
213.95 K, 101 kPa, Liquid, w2 = 0.0495	191.32 ± 0.96
214.19 K, 101.3 kPa, Glass, w2 = 0.00482	209.18 ± 1
216.04 K, 101 kPa, Liquid, w2 = 0.0495	191.7 ± 0.97
216.1 K, 101.3 kPa, Glass, w2 = 0.00482	229.46 ± 1.1
218.13 K, 101 kPa, Liquid, w2 = 0.0495	191.97 ± 0.97

Crystal
Settings	molar heat capacity at constant pressure [J/K/mol]
153.47 K, w2 = 0.00482	140.32 ± 0.76
154 K, w2 = 0.0495	102.07 ± 0.61
154.55 K, w2 = 0.0169	127.32 ± 0.71
154.86 K, w2 = 0.0051	140.76 ± 0.76
156.05 K, w2 = 0.00482	141.71 ± 0.77
156.62 K, w2 = 0.0169	128.46 ± 0.71
156.86 K, w2 = 0.0495	103.54 ± 0.61
157.46 K, w2 = 0.0051	142.19 ± 0.77
158.64 K, w2 = 0.00482	143.05 ± 0.77
158.69 K, w2 = 0.0169	129.54 ± 0.72
159.72 K, w2 = 0.0495	105.03 ± 0.62
160.06 K, w2 = 0.0051	143.6 ± 0.78
160.76 K, w2 = 0.0169	130.58 ± 0.72
161.22 K, w2 = 0.00482	144.52 ± 0.78
162.58 K, w2 = 0.0495	107.12 ± 0.63
162.67 K, w2 = 0.0051	145.04 ± 0.78
162.83 K, w2 = 0.0169	131.81 ± 0.73
163.81 K, w2 = 0.00482	145.98 ± 0.78
164.91 K, w2 = 0.0169	133.35 ± 0.73
165.35 K, w2 = 0.0051	146.89 ± 0.79
165.42 K, w2 = 0.0495	110.43 ± 0.64
166.4 K, w2 = 0.00482	147.42 ± 0.79
166.98 K, w2 = 0.0169	135.28 ± 0.74
167.95 K, w2 = 0.0051	148.6 ± 0.79
168.2 K, w2 = 0.0495	119.37 ± 0.68
168.99 K, w2 = 0.00482	148.99 ± 0.8
169.05 K, w2 = 0.0169	138.58 ± 0.76
170.54 K, w2 = 0.0051	150.98 ± 0.8
170.84 K, w2 = 0.0495	133.87 ± 0.74
171.1 K, w2 = 0.0169	143.34 ± 0.77
171.58 K, w2 = 0.00482	150.69 ± 0.8
173.12 K, w2 = 0.0051	153.72 ± 0.81
173.15 K, w2 = 0.0169	146.3 ± 0.79
173.43 K, w2 = 0.0495	137.89 ± 0.75
174.17 K, w2 = 0.00482	152.56 ± 0.81
175.22 K, w2 = 0.0169	148.17 ± 0.79
175.7 K, w2 = 0.0051	155.58 ± 0.82
176.02 K, w2 = 0.0495	137.25 ± 0.75
176.76 K, w2 = 0.00482	154.52 ± 0.82
177.3 K, w2 = 0.0169	149.6 ± 0.8
178.27 K, w2 = 0.0051	157.05 ± 0.83
178.63 K, w2 = 0.0495	136.83 ± 0.75
179.35 K, w2 = 0.00482	156.32 ± 0.83
179.39 K, w2 = 0.0169	150.75 ± 0.8
180.85 K, w2 = 0.0051	158.5 ± 0.83
181.26 K, w2 = 0.0495	136.85 ± 0.75
181.47 K, w2 = 0.0169	151.73 ± 0.81
181.94 K, w2 = 0.00482	158.09 ± 0.83
182.13 K, w2 = 0.0495	137.03 ± 0.75
183.43 K, w2 = 0.0051	159.93 ± 0.84
183.55 K, w2 = 0.0169	152.69 ± 0.81
183.89 K, w2 = 0.0495	137.25 ± 0.75
184.55 K, w2 = 0.00482	159.97 ± 0.84
184.8 K, w2 = 0.0495	137.33 ± 0.75
185.63 K, w2 = 0.0169	153.62 ± 0.81
186 K, w2 = 0.0051	161.23 ± 0.85
186.52 K, w2 = 0.0495	137.88 ± 0.75
187.15 K, w2 = 0.00482	161.48 ± 0.85
187.43 K, w2 = 0.0495	137.82 ± 0.75
187.72 K, w2 = 0.0169	154.64 ± 0.82
188.57 K, w2 = 0.0051	162.67 ± 0.85
189.16 K, w2 = 0.0495	138.51 ± 0.75
189.75 K, w2 = 0.00482	163.1 ± 0.85
189.81 K, w2 = 0.0169	155.65 ± 0.82
190.07 K, w2 = 0.0495	138.44 ± 0.75
191.13 K, w2 = 0.0051	164.05 ± 0.86
191.82 K, w2 = 0.0495	139.23 ± 0.76
191.89 K, w2 = 0.0169	156.63 ± 0.83
192.35 K, w2 = 0.00482	164.66 ± 0.86
192.72 K, w2 = 0.0495	139.22 ± 0.76
193.7 K, w2 = 0.0051	165.5 ± 0.86
193.98 K, w2 = 0.0169	157.56 ± 0.83
194.48 K, w2 = 0.0495	139.88 ± 0.76
194.95 K, w2 = 0.00482	166.1 ± 0.86
195.38 K, w2 = 0.0495	139.99 ± 0.76
196.08 K, w2 = 0.0169	158.61 ± 0.84
196.26 K, w2 = 0.0051	166.89 ± 0.87
197.16 K, w2 = 0.0495	140.43 ± 0.76
197.55 K, w2 = 0.00482	167.55 ± 0.87
198.05 K, w2 = 0.0495	140.75 ± 0.76
198.17 K, w2 = 0.0169	159.59 ± 0.84
198.82 K, w2 = 0.0051	168.3 ± 0.87
200.15 K, w2 = 0.00482	169 ± 0.88
200.26 K, w2 = 0.0169	160.53 ± 0.84
200.73 K, w2 = 0.0495	141.5 ± 0.76
201.38 K, w2 = 0.0051	169.66 ± 0.88
202.36 K, w2 = 0.0169	161.49 ± 0.85
202.75 K, w2 = 0.00482	170.67 ± 0.88
203.43 K, w2 = 0.0495	142.32 ± 0.78
203.93 K, w2 = 0.0051	171.24 ± 0.89
204.46 K, w2 = 0.0169	162.5 ± 0.85
205.36 K, w2 = 0.00482	172.16 ± 0.89
206.48 K, w2 = 0.0051	172.9 ± 0.89
206.55 K, w2 = 0.0169	163.54 ± 0.85
207.97 K, w2 = 0.00482	173.71 ± 0.89
208.05 K, w2 = 0.0495	144.92 ± 0.78
208.65 K, w2 = 0.0169	164.5 ± 0.86
209.03 K, w2 = 0.0051	175.02 ± 0.9
210.59 K, w2 = 0.00482	175.21 ± 0.9
210.75 K, w2 = 0.0495	151.13 ± 0.8
210.77 K, w2 = 0.0169	165.47 ± 0.86
211.56 K, w2 = 0.0051	176.7 ± 0.91
212.87 K, w2 = 0.0169	166.55 ± 0.87
213.21 K, w2 = 0.00482	176.73 ± 0.91
213.38 K, w2 = 0.0495	150.25 ± 0.8
214.1 K, w2 = 0.0051	177.3 ± 0.91
214.97 K, w2 = 0.0169	167.69 ± 0.87
215.83 K, w2 = 0.00482	178.25 ± 0.91
215.99 K, w2 = 0.0495	154.67 ± 0.82
216.64 K, w2 = 0.0051	178.89 ± 0.92
216.82 K, w2 = 0.00482	178.65 ± 0.91
217.07 K, w2 = 0.0169	169.05 ± 0.88
217.64 K, w2 = 0.0169	168.8 ± 0.88
